What was measured:
[1] = system: Auckland pH1N1 E119K; type: cell-based, influenza A virus; conditions: pH 1
[2] = system: Fukui H3N2 E119V; type: cell-based, influenza A virus
[3] = system: sH1N1/01 H274Y; type: cell-based, influenza A virus; conditions: read-out: IC50 sH1N/01 H274Y
[4] = system: B/Perth D197E; type: cell-based, influenza B virus; conditions: read-out: sensitivity to inhibitors, B/Perth D197E
[5] = system: Sol Isl sH1N1 E119A; type: cell-based, influenza A virus
[6] = system: B/Florida E119D (B/Florida/4/2006 mutant 1 E117D); type: cell-based, influenza B virus
[7] = system: sH1N1/08 H274Y; type: cell-based, influenza A virus

Structure (SMILES): CC(=O)NC1C(NC(=N)N)C(F)C(F)(C(=O)O)OC1[C@H](O)[C@H](O)CO (stereo partly drawn) [4-G3Feq diF SA, 5-Acetamido-2,4,5-trideoxy-2α, 3β-difluoro-4-guanidino-α-D-erythro-L-gluco-nonulopyranosonate]
- IC50 [2]: 2.4 µM
- IC50 [3]: 0.0435 µM
- IC50 [4]: 0.008 µM

Structure (SMILES): CC(=O)N[C@@H]1C(NC(=N)N)C(F)[C@](F)(C(=O)O)OC1[C@H](O)[C@H](O)CO (stereo partly drawn) [Compound 12, (2R,3R)-4-Guanyl-2,4-dideoxy-2,3-difluorosialic acid]
- IC50 [2]: 998 µM
- IC50 [3]: 0.217 µM
- IC50 [4]: 0.162 µM

Structure (SMILES): CC(=O)N[C@H]1[C@H]([C@H](O)[C@H](O)CO)OC(C(=O)O)=C[C@@H]1N=C(N)N [Zanamivir, reference compound]
- IC50 [6]: > 10 µM
- IC50 [5]: > 10 µM
- IC50 [1]: > 100 µM
- IC50 [2]: 3.4 µM
- IC50 [7]: 0.002 µM
- IC50 [4]: 0.258 µM

Structure (SMILES): CCOC(=O)C1=C[C@@H](OC(CC)CC)[C@H](NC(C)=O)[C@@H](N)C1 [Oseltamivir]
- IC50 [6]: 1.21 µM
- IC50 [5]: 0.419 µM
- IC50 [1]: 0.147 µM
- IC50 [2]: 260 µM
- IC50 [3]: 2.44 µM
- IC50 [7]: 2 µM

From patent US9834534B2, “Neuraminidase inhibitor compounds, compositions and methods for the use thereof in anti-viral treatments” (THE UNIVERSITY OF BRITISH COLUMBIA, priority 2009, dated 2017)
